Source: EPA's ToxValDB 9.5 (doi:10.2903/j.efsa.2010.1857)
In brackets after ≈: the same amount, converted by molar mass.

Tests used:
[1] = test system: Rattus norvegicus; settings: for NOAEL: histopathology: nonneoplastic
[2] = test system: Apis mellifera; settings: acute; duration: 48 hours; oral; unspecified; mortality
[3] = test system: Oncorhynchus mykiss; settings: acute; duration: 96 hours; mortality
[4] = test system: Cyprinus carpio; settings: chronic/long-term; duration: 21 days; growth
[5] = test system: Daphnia magna; settings: chronic/long-term; duration: 17 days; reproduction
[6] = test system: Colinus virginianus; settings: for LC50: diet
[7] = test system: Tagia sp.
[8] = test system: Poecilus cupreus; settings: not reported; morphology
[9] = test system: Anas platyrhynchos; settings: acute; oral; unspecified; mortality

| SMILES | LD50 ([1]; acute, oral, mortality) [mg/kg-day] | NOAEL ([1]; chronic, duration: 2 years, M) [mg/kg-day] | NOEL ([1]; reproduction developmental, reproduction) [mg/kg-day] | NOAEL ([1]; subchronic, duration: 90 days, oral) [mg/kg-day] | LD50 [2] [µg/piece] | LC50 [3] [µg/mL] | NOEC [4] [mg/L] | NOEC [5] [mg/L] | LC50 ([6]; acute, oral, mortality) [mg/kg-day] | LD50 ([6]; acute, oral, mortality) [mg/kg-day] | NOEC ([6]; reproduction developmental) [mg/kg-day] | LC50 ([7]; acute, duration: 14 days, mortality) [mg/kg] | NOEC ([7]; chronic/long-term, duration: 56 days) [mg/kg] | LEL [8] [mg/kg] | LD50 [9] [mg/kg-day] |
| --- | --- | --- | --- | --- | --- | --- | --- | --- | --- | --- | --- | --- | --- | --- | --- |
| CC1=C(C(=O)Nc2ccccc2)SCCO1 [Carboxin] | 2590 | 0.82 | 20 | 5.5 | > 100 | 2.3 (≈ 9.77 µM) | 0.32 | 0.32 | > 985 | > 2150 | 83 | > 500 | 100 | 776 |  |
| CC1=C(C(=O)Nc2ccccc2)S(=O)(=O)CCO1 [Oxycarboxin] |  |  |  |  |  |  |  |  | > 2200 |  |  |  |  |  | 1250 |
